# Experimental data published in patent publication US9636323B2, “Method of treating cancer that overexpresses TopBP1” (Baylor College of Medicine, priority 2014, dated 2017).
# Like-named read-outs stand apart in the source and are kept apart here.
# Columns and labels:
# [1] = system: U-87 MG glioblastoma multiforme cells; test: Caspase 3/7 activation assay, U-87 MG; type: cell-based; details: 2.5 or 5 μM, 16 hours
# Protocol: (§1) The apoptosis was measured by Caspase-Glo® 3/7 assay (Promega) following the manufacturer's protocol. The cells were plated in 6-well tissue culture dish (10^4 cells/well) (BD Falcon) in respective media. […] The blank reactions were prepared per direction. Equal volume of Caspase-Glo® 3/7 reagents were applied to each well. A luminometer (Sirius) was used to quantitate luminescence.
# [2] = system: p53 transcriptional activity; test: p53 activity reporter assay (p21 promoter dual luciferase) in H1299 cells; type: cell-based, human
# Protocol: (§2) E2F1 activity reporter assay using a p14^ARF promoter-luciferase plasmid was performed as described (Liu et al. 2003). p53 activity reporter assay was performed by a p21^Cip promoter-luciferase plasmid (Liu et al. 2009). p73 activity reporter assay was performed using a pGL3-Bax promoter-luciferase plasmid (Liu et al. 2011). pRL-TK (Renilla luciferase, Promega) was used in all experiments for controlling transfection efficiency. The firefly and Renilla luciferase activities were measured by Dual-Luciferase Reporter System (Promega), and the firefly luciferase activities were normalized against the Renilla activity. All assays were performed in triplicate.
# A549 = details: NCI-DTP database; cited from earlier work
# NCI-60 cancer cell lines = details: NCI-DTP data, cited from earlier work
# [3] = molecular target: T1, TopBP1/mutp53 (R249S) interaction (Homo sapiens, UniProt Q92547); test: Co-immunoprecipitation in BT549 cells, TopBP1/mutp53; type: cell-based; details: 2.5 μM
# T1 construct: endogenous in cells; host or cells: BT549
# T1 sequence (Q92547 whole entry, stated change not applied): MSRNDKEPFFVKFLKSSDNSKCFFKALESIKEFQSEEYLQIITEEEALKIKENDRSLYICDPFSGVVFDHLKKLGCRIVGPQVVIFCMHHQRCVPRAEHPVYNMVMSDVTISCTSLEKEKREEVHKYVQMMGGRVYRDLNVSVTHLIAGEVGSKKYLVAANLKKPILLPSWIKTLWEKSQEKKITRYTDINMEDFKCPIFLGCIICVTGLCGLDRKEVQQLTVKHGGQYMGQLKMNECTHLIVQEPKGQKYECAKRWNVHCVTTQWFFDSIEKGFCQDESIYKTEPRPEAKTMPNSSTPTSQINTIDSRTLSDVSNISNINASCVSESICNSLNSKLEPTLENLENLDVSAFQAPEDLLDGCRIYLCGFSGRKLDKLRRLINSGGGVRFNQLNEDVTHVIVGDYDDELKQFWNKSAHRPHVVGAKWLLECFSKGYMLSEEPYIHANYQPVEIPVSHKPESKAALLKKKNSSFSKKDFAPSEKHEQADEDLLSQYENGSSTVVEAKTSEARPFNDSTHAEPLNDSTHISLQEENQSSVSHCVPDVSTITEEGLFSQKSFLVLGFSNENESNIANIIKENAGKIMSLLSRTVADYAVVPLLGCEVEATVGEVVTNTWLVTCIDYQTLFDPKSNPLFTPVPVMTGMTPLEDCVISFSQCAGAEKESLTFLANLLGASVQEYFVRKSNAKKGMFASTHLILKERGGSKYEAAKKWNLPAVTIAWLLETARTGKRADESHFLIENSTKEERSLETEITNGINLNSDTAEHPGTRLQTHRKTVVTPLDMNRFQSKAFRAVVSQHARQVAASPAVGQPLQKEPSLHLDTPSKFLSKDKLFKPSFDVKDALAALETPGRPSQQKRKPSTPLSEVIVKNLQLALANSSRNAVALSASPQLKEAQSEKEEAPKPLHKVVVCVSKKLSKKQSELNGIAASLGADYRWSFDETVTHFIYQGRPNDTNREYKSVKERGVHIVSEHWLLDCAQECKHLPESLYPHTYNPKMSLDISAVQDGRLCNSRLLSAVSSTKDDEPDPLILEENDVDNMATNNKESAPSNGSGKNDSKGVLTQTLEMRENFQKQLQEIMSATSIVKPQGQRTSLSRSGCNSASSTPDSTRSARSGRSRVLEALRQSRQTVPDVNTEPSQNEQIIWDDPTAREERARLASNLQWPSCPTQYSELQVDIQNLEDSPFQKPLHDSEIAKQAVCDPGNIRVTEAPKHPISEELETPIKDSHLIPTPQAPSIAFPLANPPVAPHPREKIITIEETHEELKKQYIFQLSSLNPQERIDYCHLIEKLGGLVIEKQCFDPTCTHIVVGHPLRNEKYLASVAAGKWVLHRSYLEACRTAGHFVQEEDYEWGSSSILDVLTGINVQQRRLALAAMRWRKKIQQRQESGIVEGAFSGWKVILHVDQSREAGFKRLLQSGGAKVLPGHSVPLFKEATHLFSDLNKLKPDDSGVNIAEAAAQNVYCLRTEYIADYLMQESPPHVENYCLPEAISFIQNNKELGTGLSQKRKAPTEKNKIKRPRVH
# TopBP1/E2F1 interaction = molecular target: T2, TopBP1/E2F1 interaction (Homo sapiens, UniProt Q92547); test: Co-immunoprecipitation in BT549 cells, TopBP1/E2F1; type: cell-based; details: 2.5 μM, 3 h
# T2 construct: endogenous in cells; host or cells: MDA-MB468
# T2 sequence (Q92547 whole entry): as the sequence (Q92547 whole entry, stated change not applied) above
# SKOV-3 cells = test: Caspase-Glo 3/7 assay, SKOV-3 transfected with mutp53(R273H); type: cell-based, human; details: cisplatin 20 μM with Calcein AM 5 μM, 20 h
# Protocol: as §1
# NCI-H460 = details: NCI-DTP database; cited from earlier work
# BT549 cells = test: Caspase-Glo 3/7 activity assay, BT549; type: cell-based, human; details: for Calcein AM-induced apoptosis: 17 h
# Protocol: as §1
# To prepare TopBP1 knockdown stable cell line, MDA-MB468 cells were infected with lentivirus expressing TopBP1 shRNA (Liu et al. 2011) as well as scramble shRNA, separately. The infected cells were grown for 48 h followed by selection with puromycin (2 μg/ml). After selection, the knockdown was confirmed by Western blotting before further experiments. Two different pLKO-shTopBP1 (#1 and #2) constructs (Open Biosystems, RHS4533-NM_007027) were used to deplete TopBP1 in MDA-MB468 cells. Additional two pSuper-shTopBP1 constructs (Liu et al. 2004) were used to knock down TopBP1 in HEK293 cells. Two pSuper-shE2F1 constructs were used to deplete E2F1: shE2F1#1 (described previously (Liu et al. 2004)), and shE2F1#2 (target sequence 5′-[…]-3′). The target sequence for pSuperior-shE2F1 is the same as pSuper-shE2F1#1. To deplete p63, shp63alpha pLKO.1-puro (from Addgene, 19120) was used. TP73 MISSION shRNA (shp73 pLKO.1-puro) was purchased from Sigma (TRCN00002722587).
# [4] = system: mice (intestinal tissues); test: Tolerability and acute toxicity in proliferating tissues after i.p. injection; type: in vivo
# MDA-MB231 cells = test: Caspase 3/7 activity assay, MDA-MB231; type: cell-based, human; details: 2.5 μM overnight
# Protocol: as §1
# [5] = molecular target: T3, TopBP1/mutp53(R273H) interaction (Homo sapiens, UniProt Q92547); test: Co-immunoprecipitation in MDA-MB468 cells, TopBP1/mutp53; type: cell-based; details: 2.5 μM, 5 h
# T3 construct: endogenous in cells; host or cells: MDA-MB468
# T3 sequence (Q92547 whole entry, stated change not applied): as above
# Protocol: MDA-MB468 cells were lysed with TNN buffer (Liu et al. 2003). An aliquot of cell lysates was lysed with SDS lysis buffer and the rest of cell lysates were incubated with appropriate antibodies or beads at 4° C. for 3-12 h. Anti-FLAG beads (Sigma) were washed three times with TNN buffer. Immunoprecipitates were fractionated by SDS-PAGE and electro-transferred to Immobilon-P membrane (Millipore). Equal amount of protein loading was validated with Ponceau-S staining. The specific signals were detected by incubating with appropriate antibody. All primary antibodies were used at 1:1000 dilution and horseradish peroxidase (HRP)-conjugated secondary antibodies were used at 1:5000 dilution for immunoblotting. E2F1 (C-20 and KH-95), p53 (FL393), p63 (4A4 and H-129), p73 (H-79), p21 (C-19), Bax (N-20), GST (B-14), c-Myc (A14), Miz1 (H-190), Chk1 (G4), Actin (C-2) and GAPDH (6C5) antibodies were purchased from Santa Cruz. TopBP1 (mouse monoclonal) and Aid antibodies were purchased from BD Transduction Laboratories. TopBP1 (BL893, Rabbit polyclonal) antibody was purchased from Bethyl. Mouse monoclonal anti-phospho-γH2AX was purchased from Millipore. Phospho-Chk1 (Ser345) antibody was purchased from Cell signaling. FLAG (F7425) antibody was purchased from Sigma. Mouse monoclonal anti-p73 (IMG-246) was purchased from IMGENEX.
# [6] = system: mutp53(R273H) gain of function; test: p73 activity reporter (Bax promoter-luciferase) assay in p53-null H1299 cells expressing p73α and mutp53(R273H); type: cell-based, human
# Protocol: as §2
# TopBP1/Miz1 interaction = molecular target: T4, TopBP1/Miz1 interaction (Homo sapiens, UniProt Q92547); test: Co-immunoprecipitation in BT549 cells, TopBP1/Miz1; type: cell-based; details: 2.5 μM, 3 h
# T4 construct: expressed in transfected cells; host or cells: BT549
# T4 sequence (Q92547 whole entry): as the sequence (Q92547 whole entry, stated change not applied) above
# [7] = system: McA-RH7777 rat hepatoma cells; test: Apoptosis in rat tumor cells; type: cell-based
# Protocol: as §1
# Jurkat-T cells = test: Caspase 3/7 activation assay, Jurkat-T; type: cell-based; details: 2.5 μM, 7 hours
# Protocol: as §1
structure (smiles),measurement,setting,value
"CC(=O)OCOC(=O)CN(CC(=O)OCOC(C)=O)Cc1cc2c(cc1OC(C)=O)Oc1cc(OC(C)=O)c(CN(CC(=O)OCOC(C)=O)CC(=O)OCOC(C)=O)cc1C21OC(=O)c2ccccc21 [Calcein AM, Calcein AM (acetoxymethyl ester)]",apoptosis (caspase 3/7 activation),[1],induced apoptosis
same,p53 transcriptional activity,[2],enhanced
same,GI50,A549,< 1000 nM
same,GI50,NCI-60 cancer cell lines; read-out: average GI50 over all 60 cell lines,662 nM
same,GI50,NCI-60 cancer cell lines; read-out: highest GI50 of the 60 cell lines,11000 nM
same,GI50,NCI-60 cancer cell lines; read-out: lowest GI50 of the 60 cell lines,10 nM
same,interaction between TopBP1 and mutp53,[3],inhibited
same,interaction between TopBP1 and E2F1,TopBP1/E2F1 interaction,inhibited
same,inhibition of cisplatin-induced apoptosis by overexpressed mutp53(R273H),SKOV-3 cells,partially rescued
same,GI50,NCI-H460,< 1000 nM
same,concentration at which apoptosis was induced,BT549 cells; 16 h,≥ 1 µM
same,"Calcein AM response, caspase activation","BT549 cells; E2F1 depleted by two shRNA constructs, 2.5 μM, 16 h",attenuated
same,Calcein AM-induced apoptosis,"BT549 cells; p63 depleted, 2.5 μM",decreased
same,Calcein AM-induced apoptosis,"BT549 cells; p73 depleted, 2.5 μM",decreased
same,apparent toxicity in injected mice,[4]; 40 mg/kg,did not manifest any apparent toxicity
same,Ki-67 staining in intestinal epithelium,"[4]; 40 mg/kg, 48 h after injection",did not decrease Ki-67 staining
same,apoptosis in intestinal epithelium,"[4]; 40 mg/kg, 48 h after injection",nor did it induce apoptosis
same,tolerability of i.p. injections,[4]; throughout the course of treatment,appeared to tolerate
same,apoptosis (caspase 3/7 activity),MDA-MB231 cells,induced apoptosis
same,TopBP1/mutp53 interaction at physiological levels,[5],inhibited
same,inhibition of p73 transcriptional activity by mutp53(R273H),[6],blocked
same,interaction between TopBP1 and Miz1,TopBP1/Miz1 interaction,inhibited the interaction between TopBP1 and Miz1
same,apoptosis,[7],induced apoptosis
same,cell killing (caspase 3/7 activation),Jurkat-T cells,active in killing
